According to patent publication US10028992B2, “Methods of treating muscular dystrophy” (BOARD OF REGENTS OF THE NEVADA SYSTEM OF HIGHER EDUCATION …, priority 2012, dated 2018):

Test system: α7 integrin promoter
Assay: muscle cell-based assay: α7βgal+/− myoblasts/myotubes, LacZ reporter, β-galactosidase cleavage of FDG
Set-up: species or system mouse
Details: Myotubes; for Results in a α7+/− β-galactosidase assay, Myotubes, 0.5 uM: compound at 0.5 uM; for Results in a α7+/− β-galactosidase assay, Myotubes, 1 uM: compound at 1 uM; for Results in a α7+/− β-galactosidase assay, Myotubes, 5 uM: compound at 5 uM; for Results in a α7+/− β-galactosidase assay, Myotubes, 10 uM: compound at 10 uM; for Results in a α7+/− β-galactosidase assay, Myotubes, 20 uM: compound at 20 uM; for Results in a α7+/− β-galactosidase assay, Myotubes, 40 uM: compound at 40 uM
How it was run: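 Primary α7βgal+/− mouse myoblasts (LacZ knocked into α7 integrin exon 1, promoter retained), differentiated; promoter activity read as β-galactosidase conversion of non-fluorescent FDG to fluorescein. Hits followed by dose-response, western analysis and myostatin counterscreen.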

SMILES	Results in a α7+/− β-galactosidase assay, Myotubes, 0.5 uM	Results in a α7+/− β-galactosidase assay, Myotubes, 1 uM	Results in a α7+/− β-galactosidase assay, Myotubes, 5 uM	Results in a α7+/− β-galactosidase assay, Myotubes, 10 uM	Results in a α7+/− β-galactosidase assay, Myotubes, 20 uM	Results in a α7+/− β-galactosidase assay, Myotubes, 40 uM
N#Cc1nc(COc2ccccc2)oc1N1CCCC1 [drawing 466]	−0.1447	−0.2423	−0.3897	−0.2892	−0.5781	−0.8948
CCCc1nnc(SCC(=O)NC2CCCC2)n1CCOC [drawing 467]	−0.09246	0.01763	−0.3088	0.4536	−0.2024	−0.4694
Nc1cccc(/C=C/C(=O)O)c1 [drawing 468]	0.04663	−0.01629	−0.2823	−0.1292	−0.1085	−0.2156
CCCC1C(c2cc(OC)c(OC)c(OC)c2)=Nc2c1c(=O)[nH]c(=O)n2Cc1ccccc1 (stereo not drawn) [drawing 469]	−0.09222	−0.1313	−0.484	−0.34	−0.2089	−0.2856
CC(C)(C)c1ccc(C(=O)OCC(=O)Nc2sc3c(c2C#N)CCC3)cc1 [drawing 470]	−0.03535	−0.03363	0.4586	−0.1998	−0.05439	−0.05938
CCOc1cc(C)c(S(=O)(=O)N2CCCCC2)cc1C [drawing 471]	−0.1603	−0.08287	−0.1415	−0.1282	0.01353	−0.03791
Cc1cc(OCC(=O)NC(C)C)ccc1Cl [drawing 472]	−0.02692	−0.04637	−0.3868	−0.4196	−0.2513	−0.2531
Cc1ccsc1CN(C)CC(=O)Cc1ccc([N+](=O)[O-])cc1Cl [drawing 473]	−0.05036	−0.06852	−0.2581	−0.2695	−0.1438	−0.2052
O=C1c2ccccc2C(=O)C1(CC(O)O)c1ccccc1 [drawing 474]	−0.08689	0.05823	−0.2367	−0.3763	−0.3304	−0.4389
Cc1ccc(Cn2nnc3c(O)nc(C4CCCN(C(=O)c5ccco5)C4)nc32)cc1 (stereo not drawn) [drawing 475]	−0.1767	−0.1614	−0.2961	−0.3051	−0.225	−0.2551
Cc1ccc(NS(=O)(=O)c2ccc(-c3ccc(O)nn3)o2)c(C)c1 [drawing 477]	−0.04997	0.003075	−0.3008	−0.389	−0.09047	−0.1539
CCCCN1CC(=O)N2Cc3[nH]c4ccccc4c3C[C@H]2C1=O [drawing 478]	−0.1229	−0.1432	−0.3665	−0.4899	−0.2121	−0.2272
CCC(CC)C(=O)Nc1c(C(=O)N2CCN(c3ccccc3)CC2)oc2ccccc12 [drawing 479]	−0.04763	−0.04983	−0.2904	−0.3853	−0.08708	−0.02043
Cc1nc(/C=C2\C(=O)Nc3ccccc32)c[nH]1 [drawing 480]	0.01879	−0.05703	0.093	0.007066	0.01022	−0.04283
O=C(NCCc1ccc(Cl)cc1)C1CCCO1 (stereo not drawn) [drawing 481]	0.008299	−0.0666	0.2373	−0.07246	−0.08414	−0.169
CCNC(=O)C(=O)Nc1cc2c3c(c1)CCN3C(=O)CC2 [drawing 482]	0.05071	−0.07574	0.4036	−0.03505	−0.1926	−0.2686
Cc1cccc(NCC(=O)N/N=C/c2ccccn2)c1 [drawing 483]	0.07633	−0.04251	0.2712	−0.04805	0.03613	−0.1705
COc1ccc(CN2CCNC(=O)C2CC(=O)NCCc2c[nH]c3ccccc23)c(OC)c1 (stereo not drawn) [drawing 484]	−0.059	−0.1025	0.1466	−0.2654	−0.1345	−0.1806
O=c1c2cc(-c3ccccc3)sc2nc2n1N=C(c1ccccc1)CS2 [drawing 485]	0.02668	−0.1163	0.0299	−0.3812	−0.1377	−0.1734
Nc1ncnc(NCc2ccccc2)c1[N+](=O)[O-] [drawing 486]	0.008395	−0.1282	0.2507	−0.3338	−0.03158	−0.2067
O=CN1CCN(C(=O)CC(c2ccccc2)c2cc(Br)ccc2O)CC1 (stereo not drawn) [drawing 487]	−0.0643	−0.1354	0.1295	−0.2355	−0.0629	−0.1726
